Assay results: PMC6556873, “Rapid Covalent-Probe Discovery by Electrophile-Fragment Screening” (Journal of the American Chemical Society, 2019)
Like-named read-outs stand apart in the source and are kept apart here.

Columns and labels:
in vitro [1] = test: in vitro; set-up: species or system HB2, CCD841; settings: human, hek293 cells
OTUB2 (OTUB2A) = molecular target: T1, OTUB2 (OTUB2A) (Homo sapiens, UniProt Q96DC9); set-up: Intact protein LC/MS covalent labelling, fragments in pools of five, 200 uM each, 4 °C; settings: 24 h, 4 °C, pool of five; 200 µM; covalent
T1 construct: full length residues 1-234, E. coli BL21(DE3)-R3, His tag removed by TEV, construct 27312 Da
T1 sequence (Q96DC9 1-234): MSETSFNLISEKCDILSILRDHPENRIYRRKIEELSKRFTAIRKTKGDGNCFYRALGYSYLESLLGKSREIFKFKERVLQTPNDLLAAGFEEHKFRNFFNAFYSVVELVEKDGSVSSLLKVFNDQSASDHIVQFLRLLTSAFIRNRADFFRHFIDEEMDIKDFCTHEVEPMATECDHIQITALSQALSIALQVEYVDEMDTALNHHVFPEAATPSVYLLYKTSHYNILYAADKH

NUDT7 = molecular target: T2, NUDT7 (Homo sapiens, UniProt P0C024); set-up: Intact protein LC/MS covalent labelling, fragments in pools of five, 200 uM each, 4 °C; settings: 24 h, 4 °C, pool of five; 200 µM; covalent
T2 construct: residues 14-235, E. coli, pNIC28-Bsa4, N-terminal His6 tag removed by TEV, construct 26672 Da

PCAF = molecular target: T3, PCAF (Homo sapiens, UniProt Q92831); set-up: Intact protein LC/MS covalent labelling, fragments in pools of five, 200 uM each, 4 °C; settings: 24 h, 4 °C, pool of five; 200 µM; covalent
T3 construct: gene KAT2B

NNMT (hNNMT) = molecular target: T4, NNMT (hNNMT) (Homo sapiens, UniProt P40261); set-up: Intact protein LC/MS covalent labelling, fragments in pools of five, 200 uM each, 4 °C; settings: 24 h, 4 °C, pool of five; 200 µM; covalent
T4 construct: wild type, N-terminal His6 tag kept (no cleavage described), E. coli, construct 31248 Da
T4 sequence (P40261 1-264): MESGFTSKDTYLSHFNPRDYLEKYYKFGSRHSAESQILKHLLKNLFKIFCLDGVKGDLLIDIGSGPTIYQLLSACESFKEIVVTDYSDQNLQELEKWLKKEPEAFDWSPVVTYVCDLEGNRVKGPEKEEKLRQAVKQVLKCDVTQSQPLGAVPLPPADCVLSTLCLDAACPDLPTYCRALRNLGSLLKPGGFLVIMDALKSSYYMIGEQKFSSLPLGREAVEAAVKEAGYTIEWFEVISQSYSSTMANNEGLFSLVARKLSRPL

in vitro [2] = test: in vitro; set-up: species or system HB2, HEK293; settings: human, ccd841 cells
in vitro [3] = test: in vitro; set-up: species or system CCD841, HEK293; settings: human, hb2 cells, read-out: HB-2 Cells Viability (%)
BSA = molecular target: T5, BSA (Bos taurus, UniProt P02769); set-up: Intact protein LC/MS covalent labelling, fragments in pools of five, 200 uM each, 4 °C; settings: 24 h, 4 °C, pool of five; 200 µM; covalent
T5 construct: gene ALB
T5 sequence (P02769 whole entry, the tested form may be a part): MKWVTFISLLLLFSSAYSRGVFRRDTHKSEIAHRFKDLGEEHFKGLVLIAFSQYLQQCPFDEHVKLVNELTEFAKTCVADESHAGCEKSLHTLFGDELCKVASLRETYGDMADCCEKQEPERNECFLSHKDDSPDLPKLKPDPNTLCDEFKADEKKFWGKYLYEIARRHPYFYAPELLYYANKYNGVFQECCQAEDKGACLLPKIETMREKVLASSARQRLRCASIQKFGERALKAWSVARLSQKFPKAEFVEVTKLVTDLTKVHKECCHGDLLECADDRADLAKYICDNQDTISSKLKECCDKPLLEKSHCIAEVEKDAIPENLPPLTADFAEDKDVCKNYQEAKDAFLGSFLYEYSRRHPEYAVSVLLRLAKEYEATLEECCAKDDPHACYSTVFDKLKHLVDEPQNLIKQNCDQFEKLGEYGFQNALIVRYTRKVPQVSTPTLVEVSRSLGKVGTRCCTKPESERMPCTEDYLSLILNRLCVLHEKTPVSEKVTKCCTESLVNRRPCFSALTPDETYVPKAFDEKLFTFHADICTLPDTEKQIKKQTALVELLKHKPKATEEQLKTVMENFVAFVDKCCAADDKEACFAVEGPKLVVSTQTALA

T2 sequence (P0C024 14-235): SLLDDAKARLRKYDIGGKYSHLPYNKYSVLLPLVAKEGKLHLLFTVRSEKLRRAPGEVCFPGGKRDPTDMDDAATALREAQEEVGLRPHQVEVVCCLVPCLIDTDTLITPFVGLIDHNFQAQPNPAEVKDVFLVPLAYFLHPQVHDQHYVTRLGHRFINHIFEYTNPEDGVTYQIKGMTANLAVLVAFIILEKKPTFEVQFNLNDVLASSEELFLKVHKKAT
T3 sequence (Q92831 whole entry, the tested form may be a part): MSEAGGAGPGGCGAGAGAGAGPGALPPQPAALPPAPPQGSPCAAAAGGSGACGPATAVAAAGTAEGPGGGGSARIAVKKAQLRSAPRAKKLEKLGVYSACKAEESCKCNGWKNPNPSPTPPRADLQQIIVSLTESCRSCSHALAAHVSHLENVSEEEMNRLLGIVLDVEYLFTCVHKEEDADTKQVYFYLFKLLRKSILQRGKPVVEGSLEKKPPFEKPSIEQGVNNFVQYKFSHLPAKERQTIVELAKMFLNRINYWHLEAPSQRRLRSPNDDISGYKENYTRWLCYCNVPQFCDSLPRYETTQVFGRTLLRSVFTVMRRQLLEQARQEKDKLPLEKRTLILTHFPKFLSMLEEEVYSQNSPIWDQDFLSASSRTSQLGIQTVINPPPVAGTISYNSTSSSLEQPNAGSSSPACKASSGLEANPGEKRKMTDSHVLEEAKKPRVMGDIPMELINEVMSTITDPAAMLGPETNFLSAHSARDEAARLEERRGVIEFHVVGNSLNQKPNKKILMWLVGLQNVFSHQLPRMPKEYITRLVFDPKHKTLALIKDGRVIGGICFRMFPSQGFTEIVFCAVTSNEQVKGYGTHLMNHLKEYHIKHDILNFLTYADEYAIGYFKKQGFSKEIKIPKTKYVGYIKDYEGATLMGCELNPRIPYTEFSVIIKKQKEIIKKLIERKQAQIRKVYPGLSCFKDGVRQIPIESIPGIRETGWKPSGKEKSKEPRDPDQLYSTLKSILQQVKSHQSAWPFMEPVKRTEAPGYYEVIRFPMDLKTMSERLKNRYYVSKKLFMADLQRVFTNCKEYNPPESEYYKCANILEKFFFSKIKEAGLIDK

Compound | viability at 48 h, 10 µM (in vitro [1]) [%] | OTUB2 (OTUB2 (OTUB2A)) | NUDT7 (NUDT7) | PCAF (PCAF) | NNMT (NNMT (hNNMT)) | viability at 48 h, 10 µM (in vitro [2]) [%] | viability at 48 h, 10 µM (in vitro [3]) [%] | BSA (BSA)
O=C1CN(C(=O)CCl)C2(CCCCC2)C(=O)N1 [PCM-0102139] | 96.3 | 0.05 | 0.22 | 0 | 0 | 95.8 | 98.9 | 
C=CC(=O)NCc1ccc2c(c1)C(C)(C)C(=O)N2 [PCM-0102570] | 92 |  | 0 | 0 | 0.21 | 110 | 107 | 0
O=C(CCl)NC1CCCCCCC1 [PCM-0102318] | 66.1 |  | 0 | 0 | 0 | 92.1 | 86.6 | 0
C=CC(=O)Nc1cccc(F)c1 [PCM-0102922] |  | 0 | 0 | 0 | 0 |  |  | 0.19
C=CC(=O)Nc1ccc(N(C)C)cc1 [PCM-0102461] | 81.3 |  | 0 | 0 | 0.2 | 111 | 102 | 0
N#CC1(NC(=O)CCl)CCCC1 [PCM-0102136] | 44 |  | 0 | 0 | 0 | 61.1 | 70 | 0
O=C(CCl)Nc1ccc(N2CCCCC2)nc1 [PCM-0102812] | 4.4 |  | 0.14 | 0 | 0.53 | 61.5 | 32.5 | 0
C=CC(=O)N1CCNC(=O)C1c1cccs1 (stereo not drawn) [PCM-0102597] | 81 |  | 0 | 0 | 0 | 113 | 103 | 0
CC1CCC(N(C(=O)CCl)C2CC2)CC1 (stereo not drawn) [PCM-0102792] | 6.8 |  | 0.13 | 0 | 0.21 | 8.8 | 11.4 | 0
C=CC(=O)NC1CCCN(C(=O)OC)C1 (stereo not drawn) [PCM-0102526] | 90.7 |  | 0 | 0 | 0.22 | 106 | 101 | 0
O=C(CCl)Nc1ccc2c(c1)NC(=O)CO2 [PCM-0102890] |  | 0.32 | 0.08 | 0 | 0.22 |  |  | 0
C=CC(=O)N1CCC(c2nc(C(F)(F)F)c[nH]2)CC1 [PCM-0102513] | 111 |  | 0 | 0 | 0.22 | 99.4 | 95.7 | 0
O=C(CCl)N1CCC(Cc2ccccc2)CC1 [PCM-0102492] |  | 0.18 | 0.18 | 0 | 0.51 |  |  | 0
O=C(CCl)Nc1cc2c(cc1Cl)C(=O)c1ccccc1C2=O [PCM-0102757] | 22.5 |  | 0.12 | 0 | 0 | 58.4 | 1.4 | 0
Cc1ccccc1CNC(=O)CCl [PCM-0102253] | 93.4 |  | 0 | 0 | 0.2 | 86.6 | 99.6 | 0
CC(NC(=O)CCl)c1ccc2c(c1)OCO2 (stereo not drawn) [PCM-0103030] | 78.2 | 0.28 | 0.12 | 0 |  | 102 | 89.2 | 0
O=C(CCl)N1CCN(S(=O)(=O)c2ccccc2)CC1 [PCM-0102468] | 15 | 0.08 | 0 | 0 |  | 54.9 | 12.6 | 0
O=C(CCl)NC1(c2ccccc2)CCC1 [PCM-0102935] | 53.8 | 0 | 0.29 | 0 |  | 89.7 | 81.5 | 0
CN1CCN(C(=O)CCl)CC1 [PCM-0102921] | 90.1 | 0 | 0 | 0 |  | 109 | 102 | 0
O=C(CCl)Nc1nc(-c2c[nH]c3ccccc23)cs1 [PCM-0102233] | 6.5 | 0.25 | 0.26 | 0 |  | 65 | 4.8 | 0
C=CC(=O)Nc1cc(-c2ccnn2C)ccc1C [PCM-0102543] | 93.5 | 0 | 0 | 0 |  | 134 | 103 | 0
C=CC(=O)Nc1cccc(OC)c1 [PCM-0102800] |  | 0 | 0 | 0 | 0 |  |  | 0
CN(Cc1ccc(Cl)cc1)C(=O)CCl [PCM-0102344] | 2.1 | 0 | 0.34 | 0 |  | 24 | 4.3 | 0
